Assay results from US20240366539A1, “METHODS FOR TREATING AUTISM SPECTRUM DISORDERS” (INSTITUT NATIONAL DE LA SANTÉ ET DE LA RECHERCHE MÉDICALE, priority 2021, published 2024).
“Also recorded” adds a separate entry of the source.

Key:
Oprm1^−/− mice [1] = experiment: Three-chamber social preference test; assay type: in vivo, mouse
Experimental: (§1) Mice were treated with vehicle (NaCl 0.9%; ip, 10 or 20 ml/kg), NaBr (Sigma-Aldrich, Saint-Quentin Fallavier, France) administered either chronically (once a day, 10, 30, 70, 125, 250 and 500 mg/kg; i.p. or per os, in a volume of 20 ml/kg—except for combination with VU0155041: […]) or acutely (250 mg/kg, 20 ml/kg), KBr (Sigma-Aldrich, Saint-Quentin Fallavier, France; 145 mg/kg; i.p., 20 ml/kg), bumetanide (R&D systems, Minneapolis, USA, 0.5 and 2 mg/kg; i.p., 20 ml/kg) or VU0155041 (Cayman Chemicals, Ann Arbor, USA, once a day, i.p., 1 mg/kg, 10 ml/kg). […] When treatment was given chronically, behavioral testing started 8 days after beginning of daily administration. Treatment was maintained for 8 to 18 consecutive days (see timelines in FIGS. 1 and 4), allowing thorough behavioral phenotyping. On testing days, or when treatment was given acutely, drugs (or vehicle) were administered 30 min before behavioral assays.
(§2) Three-chamber social preference test. The test apparatus consisted of a transparent acrylic box (exterior walls blinded with black plastic film); partitions divided the box into three equal chambers (40×20×22.5 cm). Two sliding doors (8×5 cm) allowed transitions between chambers. Cylindrical wire cages (18×9 cm, 0.5 cm diameter-rods spaced 1 cm apart) were used to contain the mouse interactor and object (soft-toy mouse). The test was performed in low-light conditions (15 lx) to minor anxiety. Stimulus wild-type mice were habituated to confinement in wire cages for 2 days before the test (20 min/day). On testing day, the experimental animal was introduced to the middle chamber and allowed to explore the whole apparatus for a 10-min habituation phase (wire cages empty) after the sliding doors were raised. The experimental mouse was then confined back in the middle-chamber while the experimenter introduced an unfamiliar wild type age and sex-matched animal into a wire cage in one of the side-chambers and a soft toy mouse (8×10 cm) in the second wire cage as a control for novelty. Then the experimental mouse was allowed to explore the apparatus for a 10-min interaction phase. The time spent in each chamber, the time spent in nose contact with each wire cage (empty: habituation; containing a mouse or a toy: interaction), as well as the number of these nose contacts were scored a posteriori on video recordings using an ethological keyboard (Labwatcher®, View Point, Lyon, France) by trained experimenters. […] The relative position of stimulus mice (versus toy) was counterbalanced between groups.

Shank3^Δex13-16−/− mice [2] = experiment: Marble-burying; assay type: in vivo, mouse; conditions: Shank3Δex13-16−/− and WT mice, chronic NaBr 250 mg/kg once daily
Experimental: as §1
(§3) Marble-burying. Marble burying was used as a measure of perseverative behavior (68). Mice were introduced individually in transparent cages (21×11×17 cm) containing 20 glass marbles (diameter: 1.5 cm) evenly spaced on 4-cm deep fresh sawdust. To prevent escapes, each cage was covered with a filtering lid. Light intensity in the room was set at 40 lux. The animals were removed from the cages after 15 min, and the number of marbles buried more than half in sawdust was quoted.
(§4) To this purpose, we evaluated the effects of chronic NaBr administration at the dose of 250 mg/kg on autism-sensitive behaviors in these lines (FIG. 3A).

Fmr1^−/− mice [3] = experiment: Marble-burying; assay type: in vivo, mouse; conditions: Fmr1+/+ and Fmr1−/− mice; chronic NaBr 250 mg/kg once daily
Experimental: as §1, §3, §4

Shank3^Δex13-16−/− mice [4] = experiment: Three-chamber social preference test; assay type: in vivo, mouse; conditions: Shank3Δex13-16−/− mice; chronic NaBr 250 mg/kg once daily
Experimental: as §1, §2, §4

Fmr1^−/− mice [5] = experiment: Three-chamber social preference test; assay type: in vivo, mouse; conditions: chronic NaBr 250 mg/kg once daily
Experimental: as §1, §2, §4

Oprm1^−/− mice [6] = experiment: Motor stereotypies; assay type: in vivo, mouse
Experimental: as §1
Motor stereotypies. To detect motor stereotypies in mutant versus wild-type animals, mice were individually placed in clear standard home cages (21×11×17 cm) filled with 3-cm deep fresh sawdust for 10 min (64). Light intensity was set at 30 lux. Trained experimenters scored numbers of head shakes, as well as rearing, burying, grooming, circling episodes and total time spent burying by direct observation.

Oprm1^−/− mice [7] = experiment: Behavioral tests of social, repetitive and anxious behavior (oral NaBr, KBr; data not shown); conditions: mouse, in vivo, po, 250 mg/kg
Experimental: as §1
Also, we assessed the behavioral effects of chronic administration of another bromide salt, KBr.

Shank3^Δex13-16−/− mice [8] = experiment: Y-maze exploration; assay type: in vivo, mouse; conditions: Shank3Δex13-16−/− mice; chronic NaBr 250 mg/kg once daily
Experimental: as §1
(§5) Y-maze exploration. Spontaneous alternation behavior was used to assess perseverative behavior (65-67). Each Y-maze consisted of three connected Plexiglas arms (15×15×17 cm) covered with distinct wall patterns (15 lx). Floors were covered with lightly sprayed fresh sawdust to limit anxiety.
as §4

Fmr1^−/− mice [9] = experiment: Y-maze exploration; assay type: in vivo, mouse; conditions: chronic NaBr 250 mg/kg once daily
Experimental: as §1, §5, §4

rat mGlu4 receptor = biological target: T1, rat mGlu4 receptor (Rattus norvegicus, UniProt P31423); experiment: IP1 accumulation assay, mGlu4 signaling under glutamate stimulation; assay type: cell-based
T1 construct: expressed in transfected cells
Experimental: Human embryonic kidney (HEK) 293 cells were transiently transfected with rat mGlu4 receptor by electroporation together with a chimeric Gi/Gq protein to allow phospholipase activation and EAAC1, a glutamate transporter, to avoid influence of extracellular glutamate. […] 96-well plate (Greiner Bio-One) at the density of 100,000 cells per well and for IPOne assay in a PLO-coated black 96-well plate (Greiner Bio-One) at the density of 50,000 cells per well. Cells were cultured in DMEM (Gibco™, Life Technologies), supplemented with 10% fetal bovine serum. Medium was changed by GlutaMAX (Gibco™, Life Technologies) to reduce extracellular glutamate concentration 3 h before experiment. […]
IP1 accumulation assay: Inositol monophosphate accumulation was determined using the IP-One HTRF (Homogenous Time Resolved Fluorescence) kit (Cisbio Bioassays, Perkin Elmer, Codolet, France) according to the manufacturer's recommendations (72). […]
Data were analyzed using Prism 6 software (GraphPad Software, San Diego, CA, USA). […] Statistical differences between pEC50, ΔpEC50 and Emax were determined using a one-way analysis of variance followed by Tukey's post-test.
We measured mGlu4 signaling under glutamate stimulation in HEK293T cells transiently expressing mGlu4 receptors and Gαqi9, a Gi/Gq chimeric G-protein (57) that allows mGlu4 to activate the phosphoinositide pathway.

Oprm1^−/− mice [10] = experiment: Novelty-suppressed feeding; assay type: in vivo, mouse
Experimental: as §1
Novelty-suppressed feeding. Novelty-suppressed feeding (NSF) was measured in 24-hr food-deprived mice, isolated in a standard housing cage for 30 min before individual testing. Three pellets of ordinary lab chow were placed on a white tissue in the center of each arena, lit at 60 lx. Each mouse was placed in a corner of an arena and allowed to explore for a maximum of 15 min. Latency to feed was measured as the time necessary to bite a food pellet. Immediately after an eating event, the mouse was transferred back to home cage (free from cage-mates) and allowed to feed on lab chow for 5 min. Food consumption in the home cage was measured.

[11] = chronic NaBr (since lowest dose, 10 mg/kg) or bumetanide 0.5 and 2 mg/kg
[12] = Oprm1+/+ mice, chronic NaBr 10-500 mg/kg
[13] = Oprm1−/− mice, chronic NaBr 10-500 mg/kg or bumetanide 0.5 and 2 mg/kg

T1 sequence (P31423 33-912): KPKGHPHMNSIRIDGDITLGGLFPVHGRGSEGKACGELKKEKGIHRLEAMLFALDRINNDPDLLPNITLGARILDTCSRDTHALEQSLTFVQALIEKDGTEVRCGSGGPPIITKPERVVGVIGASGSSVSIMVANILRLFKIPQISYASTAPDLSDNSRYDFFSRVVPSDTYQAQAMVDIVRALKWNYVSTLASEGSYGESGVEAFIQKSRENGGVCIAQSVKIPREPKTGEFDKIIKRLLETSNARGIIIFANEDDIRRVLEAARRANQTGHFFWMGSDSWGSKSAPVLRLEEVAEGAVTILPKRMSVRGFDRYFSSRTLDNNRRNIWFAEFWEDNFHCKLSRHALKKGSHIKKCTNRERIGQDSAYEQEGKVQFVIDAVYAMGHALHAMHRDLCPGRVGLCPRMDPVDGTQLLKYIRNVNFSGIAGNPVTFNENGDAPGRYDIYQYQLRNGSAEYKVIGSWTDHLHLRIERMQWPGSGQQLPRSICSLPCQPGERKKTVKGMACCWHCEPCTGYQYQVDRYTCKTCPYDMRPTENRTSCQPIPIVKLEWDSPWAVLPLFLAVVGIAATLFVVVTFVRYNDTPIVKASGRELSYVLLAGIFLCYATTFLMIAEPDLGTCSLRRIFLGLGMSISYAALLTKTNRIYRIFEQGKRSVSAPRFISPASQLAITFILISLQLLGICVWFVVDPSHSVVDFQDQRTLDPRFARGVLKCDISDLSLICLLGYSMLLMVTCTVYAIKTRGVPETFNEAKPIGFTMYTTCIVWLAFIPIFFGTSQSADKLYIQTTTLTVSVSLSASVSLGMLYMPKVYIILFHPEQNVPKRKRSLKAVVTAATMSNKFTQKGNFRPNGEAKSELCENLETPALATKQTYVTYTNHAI

[Br-].[Na+] [NaBr, sodium bromide]
frequency of nose contacts with the mouse versus the toy (Oprm1^−/− mice [1]; NaBr 70 mg/kg or VU0155041 1 mg/kg, once daily, chronic): sufficient to restore more frequent nose contacts with the mouse versus the toy
duration of nose contacts with the mouse versus the toy (Oprm1^−/− mice [1]; NaBr 70 mg/kg, VU0155041 1 mg/kg, alone or combined, once daily, chronic): fully restored longer nose contacts with the mouse
social preference (Oprm1^−/− mice [1]; chronic NaBr 10-500 mg/kg once daily): completely restored social preference in mutant mice
social preference ratio (Oprm1^−/− mice [1]; chronic NaBr 10-500 mg/kg or bumetanide 0.5 and 2 mg/kg): normalization of their preference ratio from 10 mg/kg NaBr and over
duration of nose contacts with the mouse versus the toy (Oprm1^−/− mice [1]; [11]): longer
number of nose contacts with the mouse versus the toy (Oprm1^−/− mice [1]; [11]): more frequent
marble burying (Shank3^Δex13-16−/− mice [2]): had no effect on reduced burying in Shank3^Δex13-16−/− mice
marble burying (Shank3^Δex13-16−/− mice [2]; listed as bromide): decreased burying in both mutant and WT mice
number of buried marbles (Fmr1^−/− mice [3]): reduced the number of buried marbles in both Fmr1^+/+ and Fmr1^−/− mice
duration of nose contacts with the mouse versus the toy (Shank3^Δex13-16−/− mice [4]): made longer nose contacts with their congener versus the toy
number of nose contacts (Shank3^Δex13-16−/− mice [4]): no change in the number of nose contacts
preference ratio (Shank3^Δex13-16−/− mice [4]): increased preference ratio
time in contact with the mouse versus the toy (Shank3^Δex13-16−/− mice [4]): spent more time in contact with the mouse
duration of nose contacts with the mouse versus the object (Fmr1^−/− mice [5]): making longer nose contacts with the mouse versus the object
number of nose contacts with either stimulus (Fmr1^−/− mice [5]): without modifying the number of nose contacts
preference ratio (Fmr1^−/− mice [5]): normalized their preference ratio
time exploring the mouse versus the object (Fmr1^−/− mice [5]): restored a preference for spending more time exploring the mouse
number of grooming episodes in wild-type controls (Oprm1^−/− mice [6]; [12]): dose-dependently increased the number of grooming episodes; also recorded: at 500 mg/kg increased the frequency of grooming episodes and head shakes
number of head shakes in wild-type controls (Oprm1^−/− mice [6]; [12]): dose-dependently increased; also recorded: at 500 mg/kg increased the frequency of grooming episodes and head shakes
number of head shakes (Oprm1^−/− mice [6]; [13]): decreased under NaBr treatment since the lowest dose; also recorded: less consistently reduced the number of head shakes (doses over 125 mg/kg)
stereotypic circling episodes (Oprm1^−/− mice [6]; [13]): decreased under NaBr treatment since the lowest dose
number of rearing episodes (Oprm1^−/− mice [6]; both mouse lines (Oprm1−/− and Oprm1+/+), chronic NaBr or bumetanide): increased the number of rearing episodes in a dose-dependent manner
autistic-like deficits and motor stereotypies (Oprm1^−/− mice [7]): relieved autistic-like deficits and motor stereotypies in Oprm1^−/− mice in a similar way as it did after intra-peritoneal injection
perseverative same arm returns (Shank3^Δex13-16−/− mice [8]): suppressed under chronic bromide
perseverative same arm returns (Fmr1^−/− mice [9]): suppressed under chronic bromide
increase in glutamate efficacy (Emax, maximal IP1 production) (rat mGlu4 receptor; HEK293 cells, mGlu4 + Gαqi9, bromide): 60±10%
ΔpEC50 of glutamate between physiological Cl− concentration and after addition of Br− (rat mGlu4 receptor; addition of Br− (so in the source)): 0.42±0.03
latency to feed (Oprm1^−/− mice [10]; Oprm1−/− mice, chronic NaBr 70 mg/kg): sufficient to normalize latency to feed
latency to eat (Oprm1^−/− mice [10]; Oprm1−/− mice, chronic NaBr (since the lowest dose tested) or bumetanide): normalized eating latency
food intake (Oprm1^−/− mice [10]; both mouse lines, chronic NaBr (since the lowest dose tested) or bumetanide): increased food intake in both mouse lines
